Assay results taken from PubChem BioAssay AID2384 (Southern Research Specialized Biocontainment Screening …, 2010).
Where “and” joins values, the source holds several entries; their conditions need not be identical. Identical values can stand only once.

Tested on: S. typhi GFP reporter counter-screen, fluorescence, 4 h
Assay: S. typhi counter-screen signal inhibition – fluorescence, 4 h, counter-screen for PhoP regulon inhibitor project, dose response (AID 2384)

Structure (SMILES) | IC50
CC[C@H]1OC(=O)[C@H](C)[C@@H](O[C@H]2C[C@@](C)(OC)[C@@H](O)[C@H](C)O2)[C@H](C)[C@@H](O[C@@H]2O[C@H](C)C[C@H](N(C)C)[C@H]2O)[C@](C)(O)C[C@@H](C)CN(C)[C@H](C)[C@@H](O)[C@]1(C)O | 1.28 µM
CCC(O)(CC)C(=O)N/N=C/c1cc(Br)cc(Br)c1O | 70.2 µM
O=C(N/N=C/c1c[nH]c2ccccc12)c1cc2ccccc2o1 | 99.8 µM
C/C(=N\Nc1ccc2nncn2n1)c1ccccn1 | 37.2 µM
CN1CCN(/N=C/c2c3ccccc3c(Cl)c3ccccc23)CC1 | 73.5 µM
CC1CC(C)CN(CCOc2ccc(Cl)cc2Cl)C1 (stereo not drawn) | 88.2 µM
CCCCn1c(=N)n(CC(=O)c2ccc(Br)s2)c2ccccc21 | 45.1 µM
COc1ccc(Cl)cc1C(=O)C1CCCN(CCO)C1 (stereo not drawn) | 56.2 µM
COc1cccc(Nc2nc(NCC3CCCO3)c3ccccc3n2)c1 (stereo not drawn) | 31.1 µM
C#CCOCCOCCOCCNc1nc(N2CCN(C(=O)[C@H](Cc3cc4ccccc4[nH]3)n3cc([C@@H](N)CC(C)C)nn3)CC2)nc(N2CCN(C(=O)[C@H](Cc3cc4ccccc4[nH]3)n3cc([C@@H](N)CC(C)C)nn3)CC2)n1 | 19.1 µM
CCn1cc(C(=O)O)c(=O)c2cc(F)c(N3CCN(C(=S)NC(=O)c4ccc(Br)cc4)CC3)cc21 | 56 µM
O=C1C=C(Nc2ccccc2O)c2ccccc2C1=O | 101 µM
CN1CCN(C2=Cc3ccccc3Sc3cc(F)ccc32)CC1 | 46.7 µM
Cc1ccc2oc(=O)c(/C=C(\O)c3ccccc3)nc2c1 | 64.2 µM
CN1CCN(c2ccc(NC(=O)c3ccc(-c4ccc(Br)cc4)o3)cc2)CC1 | 19.6 µM
O=C(NNc1nc2ccc(F)cc2s1)c1cccc(F)c1 | 46.8 µM
C[C@H]1O[C@@H](n2cc(F)c(=O)[nH]c2=O)[C@H](O)[C@@H]1O | 63.7 µM
CCOc1ccc(-c2cc(C)[n+](CCN(CC)CC)c(-c3ccc(OCC)cc3)c2)cc1 | 26.4 µM
C=CCNc1ncnc2c1[nH]c1ccc(C)cc12 | 111 µM
COc1ccc(Nc2c3c(nc4ccccc24)CCC3)cc1 | 113 µM
C[C@H]1COc2c(N3CCN(C)CC3)c(F)cc3c(=O)c(C(=O)O)cn1c23 | 0.69 µM
Oc1ccc(CN2CCN(Cc3ccccc3)CC2)c2cccnc12 | 25.7 µM
Fc1ccc(NC(=S)Nc2cc(-c3ccccc3)[nH]n2)cc1Cl | 71.7 µM

Structure (SMILES) | IC50
Clc1cccc(CN2CCc3c([nH]c4ccccc34)C2)c1Cl | 136 µM
Cc1ccc(OCC(=O)N/N=C\c2c(C)[nH]n(-c3ccccc3)c2=O)c([N+](=O)[O-])c1 | 42.6 µM
C/C(O)=C\c1nc2ccccc2oc1=O | 41.6 µM
CC[C@H]1OC(=O)C[C@@H](O)[C@H](C)[C@@H](O[C@@H]2O[C@H](C)C[C@H](N(C)C)[C@H]2O)[C@@H](CC=O)C[C@@H](C)C(=O)C=C[C@]2(C)O[C@H]2[C@@H]1C | 3.95 µM
COc1ccc(C(=O)NNC(=S)NC(=O)c2ccccc2)cc1 | 94 µM
CNCCCN1c2ccccc2CCc2ccccc21 | 77.6 µM
OCCN1CCN(CCCN2c3ccccc3Sc3ccc(Cl)cc32)CC1 | 73.7 µM
c1ccc2cc3c(NCCN4CCOCC4)ccnc3cc2c1 | 88.2 µM
O=C(CN1C2=NCCCN2c2ccccc21)c1ccc(Br)s1 | 40.2 µM
O=C1c2cccc3cccc(c23)C(=O)C1(O)O | 17 µM
CCOC(=O)c1c(N)sc(C(=O)Nc2ccc3c(c2)OCO3)c1C | 132 µM
CCCCCOc1ccc(CSC(=N)N)cc1[N+](=O)[O-] | 30.4 µM
CN(C)[C@@H]1C(=O)C(C(N)=O)=C(O)[C@@]2(O)C(=O)C3=C(O)c4c(O)cccc4[C@@](C)(O)C3[C@H](O)C12 (stereo partly drawn) | 0.31 µM and 1.78 µM
O=C(N/N=C/c1cc([N+](=O)[O-])ccc1O)c1cccc2cc[nH]c12 | 18.5 µM
OCCCCNCc1ccc(OCc2ccc(Cl)cc2Cl)cc1 | 56.7 µM
Cc1ccc(-c2cc(-c3ccc(C)cc3)[n+](-c3ccccc3)c(-c3ccc(C)cc3)c2)cc1 | 23.6 µM
O=S1(=O)CC=C(CSC(=S)NC2CCS(=O)(=O)C2)C1 (stereo not drawn) | 39.1 µM
CCCCC(=O)NC(=S)NNC(=O)CC | 62.2 µM
Cc1cc(CSC(=N)N)c(CSC(=N)N)cc1C | 50.1 µM
Cc1ccc(-n2c(C)cc(C3N=C(N)Nc4nc5ccccc5n43)c2C)c(C)c1 (stereo not drawn) | 26.6 µM
C#CCOCCOCCOCCNc1nc(N2CCN(C(=O)CCCCCCCCCCNC(=O)[C@H]([C@@H](C)CC)n3cc(CCCCCN)nn3)CC2)nc(N2CCN(C(=O)CCCCCCCCCCNC(=O)[C@H]([C@@H](C)CC)n3cc(CCCCN=C(N)N)nn3)CC2)n1 | 25 µM
Cc1cc(=O)[nH]c(-n2nc(C)cc2C)n1 | 68.8 µM
C#CCOCCOCCOCCNc1nc(N2CCN(C(=O)CCCCCCCCCCNC(=O)[C@H]([C@@H](C)CC)n3cc(CCCCN=C(N)N)nn3)CC2)nc(N2CCN(C(=O)CCCCCCCCCCNC(=O)[C@H](CCCCN)n3cc(C)nn3)CC2)n1 | 47.3 µM

Structure (SMILES) | IC50
Cc1ccc(C(=O)Sc2cccccc2=O)cc1 | 6.31 µM
CCn1cc(C(=O)NCCN(C)C)c(=O)c2cc(F)c(N3CCN(C)CC3)cc21 | 52.8 µM
Cc1ccc(NC(=O)c2ccccc2)s1 | 110 µM
CC(C)(C)c1ccc(OCCCNC2CCCC2)cc1 | 77.7 µM
OCCN1CCN(C2Cc3cc(Cl)ccc3Sc3ccc(Cl)cc32)CC1 (stereo not drawn) (tested in a mixture with another compound) | 25.9 µM
O=C(N/N=C/C1CC=CCC1)c1cc(Br)ccc1O (stereo not drawn) | 123 µM
Cc1cc(C)n(/N=C/c2cc(Cl)cc(Cl)c2O)c(=O)c1 | 101 µM
Fc1cccc(Nc2c3c(nc4ccccc24)CCC3)c1 | 76.6 µM
Cc1occc1C(=O)N/N=C/c1cccs1 | 54.9 µM
Oc1[nH]c2ccc(Br)cc2c1N=NC(=S)N1CCOCC1 | 33.1 µM
O=C(CSc1nc2ccccc2[nH]1)Nc1ccc(F)c(F)c1 | 74.2 µM
Oc1ccc(Cl)cc1Cc1cc(Cl)ccc1O | 27.7 µM
CN(C)CCNC(=O)c1ccc(COc2ccc(Cl)cc2Cl)cc1 | 75.6 µM
NC1=NC[C@H](Cc2ccc(O)cc2)N1CCC12CC3CC(CC(C3)C1)C2 | 37.7 µM
CCCCCCCCCCOC(=O)Cn1c(COc2ccccc2OC)[n+](C)c2ccccc21 | 20 µM
COc1ccc(NC(=O)c2[nH]ncc2[N+](=O)[O-])cc1 | 133 µM
CCCCCCCNC(=O)C1(CC2CC(c3ccc(Cl)cc3)=NO2)CCNCC1 (stereo not drawn) | 23.8 µM
CSc1ccc2c(c1)C(N1CCN(C)CC1)Cc1ccccc1S2 (stereo not drawn) | 27.5 µM
NC1CCN(c2nc3c(cc2F)c(=O)c(C(=O)O)cn3-c2ccc(F)cc2F)C1 (stereo not drawn) | 1.53 µM
O=C(NNC(=S)NC(=O)c1ccco1)c1ccc(F)cc1 | 130 µM
Cc1cc(N2CCC(C)CC2)nc(NCc2ccccc2)n1 | 51.8 µM
CCCCCCCCCCOC(=O)Cn1c(COc2ccc(Cl)cc2)[n+](C)c2ccccc21 | 10.1 µM
O=c1[nH]c2ccccc2n2c(=S)[nH]nc12 | 147 µM

Structure (SMILES) | IC50
Fc1ccccc1CCNCc1ccccc1 | 34.4 µM
CN1CCN(C(c2ccc(Cl)cc2)c2cc(Cl)c3cccnc3c2O)CC1 (stereo not drawn) | 19.7 µM
C=CCOc1ccc(Cl)cc1CNC1CCCC1 | 102 µM
OC1CNCc2cc3c(cc21)OCCO3 (stereo not drawn) | 61.7 µM
O=[N+]([O-])c1cc(F)c2cccnc2c1O | 7.36 µM
O=C(NC1CCCCC1)c1ccc([N+](=O)[O-])o1 | 119 µM
CN1CC=C(/C=C/c2ccc(-c3ccccc3)cc2)CC1 | 23.7 µM
Nc1nc(F)nc2c1ncn2[C@@H]1O[C@H](CO)[C@@H](O)[C@H]1O | 24.1 µM
Cc1cccc(OCC(O)Cn2c(=N)n(CCN3CCCCC3)c3ccccc32)c1 (stereo not drawn) | 10.4 µM
CCN(CCNCC(O)COc1ccccc1C(C)C)c1cccc(C)c1 (stereo not drawn) | 37.7 µM
COc1ccccc1CNCCc1ccc(F)cc1 | 33 µM
O=C(Cc1cccs1)N/N=C\c1ccc([N+](=O)[O-])s1 | 50.9 µM
Cc1nc2ccccc2c(N)c1C(=O)/C=C/c1ccccc1 | 101 µM
Cc1cc([N+](=O)[O-])cc(/C=N/n2c(C)nc3ccccc3c2=O)c1O | 78.1 µM
C[n+]1c2n(c3ccccc31)N=C(c1ccc(-c3ccccc3)cc1)CS2 | 26.4 µM
CCCOc1ccc(C(=O)NNC(=S)NC(=O)CC)cc1 | 28.7 µM
CC1=NOC(=O)/C1=C/c1ccc(O)cc1 | 146 µM
CC[C@H](C)[C@@H](CN[C@H](C)CNC)NCCC(c1ccccc1)c1ccccc1 | 50.2 µM
N=c1c2c(n(Cc3cccc(Cl)c3)c3c1CCC3)CCCC2 | 47.8 µM
O=[N+]([O-])c1ccc(N2CCNCC2)cc1NCc1cccnc1 | 73.8 µM
Oc1c(I)cc(Cl)c2cccnc12 | 5.62 µM
COc1ccc2nc(N(CCN(C)C)C(=O)/C=C/c3cccs3)sc2c1 | 65.8 µM
OC1(c2ccc(Cl)cc2)CCN(Cc2c[nH]c3ccccc23)CC1 | 29.8 µM

Structure (SMILES) | IC50
O=C1C(=O)c2ccccc2-c2ccccc21 | 19.4 µM
Cc1ccccc1C(=O)Nc1cccc(C(=O)N/N=C/c2cc(Cl)cc([N+](=O)[O-])c2O)c1 | 32.9 µM
Clc1ccc2[nH]c3c(c2c1)CCc1cn[nH]c1-3 | 105 µM
CCCCCCCCCCCCCCCCn1cc[n+](C)c1 | 34.8 µM
NC1=NC[C@H](c2ccccc2)N1CCc1cc(C(F)(F)F)cc(C(F)(F)F)c1 | 31.1 µM
CCOc1cccc(/C=N/NC(=O)c2cc(C3CC3)[nH]n2)c1O | 127 µM
Nc1nc(N)c(Cc2ccc(Cl)cc2Cl)c(N)n1 | 61.8 µM
CCn1nnc(NC(=O)c2ccc([N+](=O)[O-])o2)n1 | 80 µM
Nc1nonc1C(=O)N/N=C/c1cc(Br)ccc1O | 14 µM
CC1CCN(CCCCOc2ccc(Cl)cc2)CC1 | 136 µM
O=C(NC(=S)NNC(=O)c1ccccc1O)c1ccco1 | 25.8 µM
CCCC(=O)NC(c1ccco1)c1cc([N+](=O)[O-])c2cccnc2c1O (stereo not drawn) | 25.4 µM
O=C(Nc1c(Cl)ccc2nsnc12)c1ccc([N+](=O)[O-])o1 | 137 µM
COc1ccc(CNCCc2ccc(Cl)cc2)cc1OCc1ccccc1 | 69.3 µM
CC(Oc1ccc(Br)cc1)c1nc2c3ccccc3nc(=S)n2[nH]1 (stereo not drawn) | 139 µM
O=c1c2ccccc2[nH]c2ccccc12 | 62 µM
Oc1c(Br)cc(Br)cc1C=NCc1ccc(F)cc1 | 46.2 µM
Oc1ccc(CN2CCCc3ccccc32)c2cccnc12 | 57.2 µM
CNCCCCOc1ccc(C(C)(C)C)cc1Cl | 58.2 µM
CC(C)(C)c1ccc(NC(=O)COC(=O)c2ccc([N+](=O)[O-])s2)cc1 | 15.1 µM
O=C(NC(=S)NNC(=O)c1cccs1)c1ccco1 | 52.3 µM
